The subject of series [1] is absolute ethanol-induced ulcer. Put plainly: Anti-ulcerogenic activity, absolute ethanol-induced ulcer model. The series is classed as in vivo, male Wistar rats. The following applies: for inhibition in vivo at 50 mg/kg / inhibition in vivo at 100 mg/kg: Rattus norvegicus, po; for inhibition in vivo at 50 mg/kg: read-out: % protection; for score: lesion score 0-5, rats. On the procedure: (§1) The biological activities of the investigational compounds (CP1-8) were investigated as follows. Swiss albino mice of both sexes (26-30 g) and male Wistar rats (180-200 g) were purchased from the animal house of King Saud University, KSA. Animals were housed in standard polypropylene cages with wire mesh top and maintained under standard conditions (temperature 23±1.0° C., humidity 55±10%, 12 h light/12 h dark cycle). They were fed a standard pellet diet with water ad libitum and were allowed to adapt to the laboratory environment for one week before experimentation.
Evaluation of the anti-ulcerogenic activity was carried out using absolute ethanol-induced ulcer model as described by Bighettia et al. (2005). Eighteen male Wistar rats were divided into 3 groups each of 6 rats. Group 1 received the vehicle and served as control ulcer, Group 2 received ranitidine (100 mg/kg) and served as standard, and Groups 3 received the target compound at a dose of 50 mg/kg for CP1-7 and a dose of 100 mg/kg for CP8.
Rats of all groups were fasted for 24 h then all medications were administered orally. One hour after treatment, the animals received an oral dose of absolute ethanol (1 ml/200 g) and then sacrificed one hour later, by ether inhalation, the stomachs were rapidly removed, opened along their greater curvature and gently rinsed under running tap water.
Number of lesions in the glandular part of the stomach were measured under an illuminated magnifying microscope (10×). Long lesions were counted and their lengths were measured. Petechial lesions were counted, and then each five petechial lesions were taken as 1 mm of ulcer.
The lesion scores in the mucosal lesions were quantified by the scoring system (0-5) 0=no damage, 1=Local edema and inflammation without ulcers; 2=One ulcer without inflammation; 3=one to two ulcers with inflammation & lesion diameter <1 cm; 4=More than two ulcers with lesion diameter 1-2 cm; 5=Sever ulceration with lesion diameter >2 cm (Morris et al., 1989).
In order to calculate the Ulcer Index (mm), the sum of the total length of long ulcers and petechial lesions in each group of rats was divided by its number. The curative ratio was determined according to the formula: […]

The subject of series [2] is acetic acid induced colitis. Put plainly: Anti-ulcerative colitis activity, acetic acid induced colitis. The series is classed as in vivo, rats. The following applies: for inhibition in vivo at 50 mg/kg: Rattus norvegicus, po, 120 h, read-out: % Protection; for Wt/l: colon wet weight/length ratio; for % Protection of control colitis: Table 5, CP8 100 mg/kg. The method, then: as §1
Groups of animals each of 6 rats were used for assessing the anti-ulcerative colitis activity. The first group received dexamesathone at dose 0.1 mg/kg orally to serve as standard; two other groups received water orally and served as normal control and control colitis. Other groups received the tested compounds CP 1-7 at a dose 50 mg/kg and tested compound CP 8 at a dose of 100 mg/kg. Ulcerative colitis was induced by slowly infusion of 2 mL (4%, v/v) acetic acid in saline into the colon through the catheter. Two hours after the induction of colitis, animals received the 1st dose of all medication, then all groups received medication for 5 consecutive days, two hours after the last dose, animals were sacrificed by ether anesthesia, colonic segments (8 cm in length and 3 cm proximal to the anus) were excised, opened and were used for macroscopic scoring (Awaad et al., 2013).
The colonic lesions were assessed as follows. The colon specimens were weighted and wet weight/length ratio was calculated for all the rats. The specimens were examined under a dissecting microscope and the mucosal lesions were quantified by the scoring system (0-5) given by Awaad et al., (2013) after some modifications. The lesion scores were determined as follows: 0=no damage, 1=Local edema and inflammation without ulcers; 2=One ulcer without inflammation; 3=one to two ulcers with inflammation & lesion diameter <1 cm; 4=More than two ulcers with lesion diameter 1-2 cm; 5=Sever ulceration with lesion diameter >2 cm.
The ulcer area was measured using plane glass square. Each cell on the glass square was 1 mm^2 in area and the number of cells was counted and the ulcer area was determined for each colon. The ulcer index was measured by summing the lesion score and the ulcer area for each colon specimen (Awaad et al, 2013).

Series [3] deals with liver and kidney functions. Put plainly: Effect on liver and kidney functions. The class given is in vivo, Male Wister rats. On the procedure: The effect on liver and kidney functions using the derivatives were investigated as follows. Male Wister rats were divided into 2 groups, each of 10 rats. The 1st group was left as a control and administered the vehicle orally, while the other group was orally administered the synthesized compounds in a dose of 50 mg/kg (for CP 1-7) or a dose of about 100 mg/kg (for CP 8). After the examination period, 6 h after the last dose blood samples were collected from the orbital plexus of rats. Samples were left to clot at room temperature for 30 min then centrifuged at 1000 rpm for 20 min.
The collected sera were used for determination of the activity of both (AST) aspirate aminotransferase and (ALT) alanine aminotransferase as liver markers. In addition, levels of blood urea, serum creatinine were also estimated as kidney markers (Awaad et al., 2013).

[4] abbreviates: Table 2, protection of control ulcer, oral, CP-1-7 50 mg/kg, ranitidine 100 mg/kg.
Where [5] appears, read: Table 2, oral, CP-1-7 50 mg/kg, ranitidine 100 mg/kg.
[6] abbreviates: Table 4, protection of control colitis, CP-1-7 50 mg/kg, dexamethasone 0.1 mg/kg.
The mark [7] stands for this setting: Table 4, oral 5 days, CP-1-7 50 mg/kg, dexamethasone 0.1 mg/kg.
The mark [8] stands for this setting: Table 6, rat serum, oral 50 mg/kg, 6 h after last dose, mean ± SD, n = 10.
[9] abbreviates: Table 6, rats, oral 50 mg/kg, 6 h after last dose, mean ± SD, n = 10.
The mark [10] stands for this setting: Table 3, protection of control ulcer, oral 100 mg/kg.
Setting [11] is: Table 7, rat serum, oral 100 mg/kg, mean ± SD, n = 10.
The mark [12] stands for this setting: Table 7, rats, oral 100 mg/kg, mean ± SD, n = 10.
[13] abbreviates: rats, oral 50 mg/kg (CP 1-7) or 100 mg/kg (CP 8).

Where two headings read alike, the source gives them in different places.

The source of these data is patent US9598361B1, “Amino substituted acetamide derivative” (KING SAUD UNIVERSITY, priority 2016, dated 2017).

As a reminder, the melting point is the temperature of the solid-liquid transition.

On to `COc1ccc(C2CCN(CC(=O)Nc3ccc(S(N)(=O)=O)cc3)CC2)cc1` [CP-5, 2-[4(4-Methoxyphenyl)piperidinyl]-N-(4-aminosulphonylphenyl)acetamide], for which the melting point was in the range of 175 to 177 °C. The inhibition in vivo at 50 mg/kg in series [1] (setting [4]) amounted to 83.6%. In series [1] (setting [5]), this molecule gave a score of 2.40. The inhibition in vivo at 50 mg/kg in series [2] (setting [6]) was determined as 22.3%. Further, the Wt/l in series [2] (setting [7]) was 0.75 ± 0.02. In series [3] (setting [8]), this molecule had an ALT of 36.35 ± 1.26 U/l and an AST of 44.09 ± 1.25 U/l. In series [3] (setting [9]), the “Blood Urea” value came to 55.92 ± 0.55 mg/dL and the “Serum Creatinine” value worked out at 0.86 ± 0.07 mg/dL.
Molecule `NS(=O)(=O)c1ccc(NC(=O)CN2CCC(N3CCCCC3)CC2)cc1` [CP-4, 2-[4-(1-Piperidino)piperidinyl]-N-(4-aminosulphonylphenyl)acetamide] came in with a melting point of 215 to 217 °C. For the same molecule, the inhibition in vivo at 50 mg/kg in series [1] (setting [4]) worked out at 97.7%. For the same molecule, the score in series [1] (setting [5]) was determined as 2.00. The inhibition in vivo at 50 mg/kg in series [2] (setting [6]) was 25.3%. For the same molecule, the Wt/l in series [2] (setting [7]) came to 0.84 ± 0.02. This molecule also registered a score in series [2] (Table 4, lesion score 0-5, oral 5 days, CP-1-7 50 mg/kg, dexamethasone 0.1 mg/kg) of 3.00 ± 0.63. In addition, in series [3] (setting [8]), the ALT came to 36.87 ± 1.28 U/l and the AST is given as 44.16 ± 1.57 U/l. Also, in series [3] (setting [9]), the “Blood Urea” value came out at 47.96 ± 0.84 mg/dL. Further, the “effect on serum creatinine (in words)” value in series [3] (rats, oral 50 mg/kg) is recorded as “slightly elevated”.
`Cc1cc(NCC(=O)Nc2ccc(S(N)(=O)=O)cc2)c2ccccc2n1` [CP-7, 2-(2-Methylquinolin-4-ylamino)-N-(4-aminosulphonylphenyl)acetamide] displayed a melting point greater than 300 °C. Moreover, in series [1] (setting [4]), the inhibition in vivo at 50 mg/kg came to 64.1%. The score in series [1] (setting [5]) is listed as 3.60. The “effect versus dexamesathone in reducing all colitis parameters (in words)” value in series [2] (50 mg/kg versus dexamesathone 0.1 mg/kg) is listed as “significantly more effective than dexamesathone”. Moreover, the inhibition in vivo at 50 mg/kg in series [2] (setting [6]) came out at 66.8%. Also, the Wt/l in series [2] (setting [7]) was 0.49 ± 0.02. In series [3] (setting [8]), this molecule came in with an ALT of 36.33 ± 1.35 U/l and an AST of 46.16 ± 1.48 U/l. For the same molecule, in series [3] (setting [9]), the “Blood Urea” value worked out at 53.00 ± 0.14 mg/dL and the “Serum Creatinine” value turned out to be 0.85 ± 0.09 mg/dL.
`N#CC1(c2ccccc2)CCN(CC(=O)Nc2ccc(S(N)(=O)=O)cc2)CC1` [CP-1, 2-[(4-Cyano-4-phenyl)piperidinyl]-N-(4-aminosulphonylphenyl)acetamide] registered a melting point of 196 to 198 °C. For the same molecule, the inhibition in vivo at 50 mg/kg in series [1] was 55.5%. Besides, in series [1] (setting [5]), the score is listed as 3.20. In addition, the inhibition in vivo at 50 mg/kg in series [2] worked out at 31.7%. In series [2] (setting [7]), the Wt/l was determined as 0.79 ± 0.08. In series [3] (setting [8]), this molecule gave an ALT of 35.77 ± 1.60 U/l and an AST of 44.43 ± 1.57 U/l. The “Serum Creatinine” value in series [3] (setting [9]) was determined as 0.88 ± 0.03 mg/dL. Moreover, in series [3] (rats, oral 50 mg/kg), the “effect on blood urea concentration (in words)” value is recorded as “slightly elevate”.
In the case of `Cc1cccc(N2CCN(CC(=O)Nc3ccc(S(N)(=O)=O)cc3)CC2)c1C` [CP-6, 2-[4(2,3-Xylyl)piperazinyl]-N-(4-aminosulphonylphenyl)acetamide], the melting point was in the range of 241 to 243 °C. Besides, the inhibition in vivo at 50 mg/kg in series [1] (setting [4]) turned out to be 88.5%. Moreover, the score in series [1] (setting [5]) is 3.00. In addition, the inhibition in vivo at 50 mg/kg in series [2] (setting [6]) is 30.6%. Further, the Wt/l in series [2] (setting [7]) was 0.71 ± 0.05. In series [3] (setting [8]), this molecule registered an ALT of 36.02 ± 1.58 U/l and an AST of 44.7 ± 1.66 U/l. Further, in series [3] (setting [9]), the “Blood Urea” value was determined as 51.00 ± 0.89 mg/dL and the “Serum Creatinine” value came out at 0.83 ± 0.08 mg/dL.
As to `C[C@@H]1C[C@H]2[C@@H]3CCC4=CC(=O)C=C[C@]4(C)[C@@]3(F)[C@@H](O)C[C@]2(C)[C@@]1(O)C(=O)CO` [Dexamethasone, reference compound], the inhibition in vivo at 50 mg/kg in series [2] (setting [6]) amounted to 59.3%. In series [2] (setting [7]), the Wt/l is on record as 0.52 ± 0.07. Besides, the “% Protection of control colitis” value in series [2] (dexamethasone 0.1 mg/kg) is listed as 60%.
`CNC(=C[N+](=O)[O-])NCCSCc1ccc(CN(C)C)o1` [Ranitidine, ranitidine, reference compound]: in series [1] (setting [4]), the inhibition in vivo at 50 mg/kg worked out at 49.2%. For the same molecule, the inhibition in vivo at 100 mg/kg in series [1] (setting [10]) is 58.8%. The score in series [1] (setting [5]) was determined as 2.20; in series [1] (Table 3, oral 100 mg/kg) it was 2.20.
In the case of `NS(=O)(=O)c1ccc(NC(=O)CN2CCC(O)(c3ccccc3)CC2)cc1` [CP-2, 2-[(4-Hydroxy-4-phenyl)piperidinyl]-N-(4-aminosulphonylphenyl)acetamide], the melting point lay within 221 to 223 °C. Moreover, the inhibition in vivo at 50 mg/kg in series [1] (setting [4]) turned out to be 71.9%. In series [1] (setting [5]), this molecule came in with a score of 3.20. Also, the inhibition in vivo at 50 mg/kg in series [2] (setting [6]) was 49.1%. Besides, the Wt/l in series [2] (setting [7]) came out at 0.74 ± 0.02. Further, in series [3] (rat, in vivo, po, 50 mg/kg), the ALT came out at 39.70 ± 0.22 U/l, the AST came to 66.28 ± 0.40 U/l, the “Blood Urea” value amounted to 52.55 ± 1.24 mg/dL and the “Serum Creatinine” value is 0.86 ± 0.03 mg/dL.
Take `NS(=O)(=O)c1ccc(NC(=O)CNc2ccccc2C(=O)O)cc1` [CP8, 2-(2-Hydroxycarbonylphenylamino)-N-(4-aminosulphonylphenyl)acetamide]: the “effect versus ranitidine in reducing ulcer index and ulcer score (in words)” value in series [1] (CP8 100 mg/kg versus ranitidine 100 mg/kg) is on record as “significantly more effective than the standard”. In series [1] (setting [10]), the inhibition in vivo at 100 mg/kg was 87.1%. The score in series [1] (Table 3, oral 100 mg/kg) amounted to 1.20. In addition, the “% Protection of control colitis” value in series [2] (dexamethasone 0.1 mg/kg) is reported as 64.2%. Further, in series [3] (setting [11]), the ALT came to 39.70 ± 0.22 U/l and the AST turned out to be 66.28 ± 0.40 U/l. Besides, in series [3] (setting [12]), the “Blood Urea” value was found to be 68.60 ± 1.9 mg/dL and the Creatinine is 0.86 ± 0.03 mg/dL. In addition, in series [3] (setting [13]), the “liver functions (activity of AST and ALT), hepatotoxic manifestation (in words)” value is “didn't reveal hepatotoxic manifestation”; the “nephrotoxic manifestations (in words)” value is “no apparent nephrotoxic manifestations”. Further, in series [3] (rats, oral 100 mg/kg, 0.05 level of probability), the “liver and kidney functions versus control (in words)” value is “not affected”.
